Values joined by “and” are separate entries in the source; they are usually repeats but may differ in a detail not shown here. Equal values may be shown once.
Tests used:
[1] = refractive index (Na D-line) (dimensionless); xn = mol fraction of the nth substance listed; settings: 298.15 K, 101 kPa, Liquid
[2] = xn = mol fraction of the nth substance listed; settings: 101 kPa, Liquid
[3] = 101 kPa, Liquid
[4] = refractive index (Na D-line) (dimensionless); settings: 298.15 K; 101.33 kPa; Liquid

CO [methanol] + CCOS(=O)(=O)[O-].CCn1cc[n+](C)c1
Settings | refractive index
[1], x1 = 1 | 1.32687

[2], x1 = 1
Settings | mass density [kg/m3] | speed of sound [m/s] | viscosity [mPa·s]
298.15 K | 786.4 | 1103 | 0.546
313.15 K | 772.3 | 1055 | 0.446
328.15 K | 757.8 | 1006 | 0.369

CC(C)O [propan-2-ol]
[3]
Settings | mass density [kg/m3] | speed of sound [m/s] | viscosity [mPa·s]
298.15 K | 780.7 | 1138 | 2.082
313.15 K | 767.8 | 1085 | 1.354
328.15 K | 753.9 | 1031 | 0.919

Settings | refractive index
[4] | 1.37495

CCOS(=O)(=O)[O-].CCn1cc[n+](C)c1 [1-ethyl-3-methylimidazolium ethyl sulfate]
[3]
Settings | mass density [kg/m3] | speed of sound | viscosity [mPa·s]
298.15 K | 1237.6 | 1679 m/s | 97.58
313.15 K | 1227.5 | 1641 m/s and 1642 m/s and 1643 m/s | 50.01
328.15 K | 1217.5 | 1605 m/s | 29.18

Settings | refractive index
[4] | 1.4794

CC(C)O [propan-2-ol] + CCOS(=O)(=O)[O-].CCn1cc[n+](C)c1
Settings | refractive index
[1], x1 = 1 | 1.37495

[2], x1 = 1
Settings | mass density [kg/m3] | speed of sound [m/s] | viscosity [mPa·s]
298.15 K | 780.7 | 1138 | 2.082
313.15 K | 767.8 | 1085 | 1.354
328.15 K | 753.9 | 1031 | 0.919

CCCO [propan-1-ol]
[3]
Settings | mass density [kg/m3] | speed of sound [m/s] | viscosity [mPa·s]
298.15 K | 799.6 | 1207 | 2.017
313.15 K | 787.4 | 1155 | 1.43
328.15 K | 774.8 | 1105 | 1.041

Settings | refractive index
[4] | 1.3831

CO [methanol]
[3]
Settings | mass density [kg/m3] | speed of sound [m/s] | viscosity [mPa·s]
298.15 K | 786.4 | 1103 | 0.546
313.15 K | 772.3 | 1055 | 0.446
328.15 K | 757.8 | 1006 | 0.369

Settings | refractive index
[4] | 1.32687

CCOS(=O)(=O)[O-].CCn1cc[n+](C)c1 [1-ethyl-3-methylimidazolium ethyl sulfate] + CCCO
[1]
Settings | refractive index
x2 = 0 | 1.4794
x2 = 0.1619 | 1.47317
x2 = 0.2104 | 1.47102
x2 = 0.336 | 1.46449
x2 = 0.5159 | 1.4524
x2 = 0.7298 | 1.43139
x2 = 0.8046 | 1.42139
x2 = 0.8894 | 1.40743
x2 = 0.9401 | 1.39739
x2 = 0.9727 | 1.39003

[2]
Settings | mass density, 298.15 K [kg/m3] | mass density, 313.15 K [kg/m3] | mass density, 328.15 K [kg/m3] | speed of sound, 298.15 K [m/s] | speed of sound, 313.15 K [m/s] | speed of sound, 328.15 K [m/s] | viscosity, 298.15 K [mPa·s] | viscosity, 313.15 K [mPa·s] | viscosity, 328.15 K [mPa·s]
x2 = 0 | 1237.6 | 1227.5 | 1217.5 | 1679 | 1642 | 1605 | 97.58 | 50.01 | 29.18
x2 = 0.1619 | 1208.1 | 1197.9 | 1187.6 | 1637 | 1600 | 1565 | 60.85 | 33.73 | 20.84
x2 = 0.2104 | 1197.9 | 1187.6 | 1177.3 | 1620 | 1584 | 1548 | 52.11 | 29.56 | 18.59
x2 = 0.336 | 1167.4 | 1157.1 | 1146.7 | 1574 | 1537 | 1501 | 34.41 | 20.72 | 13.61
x2 = 0.5159 | 1111.6 | 1100.8 | 1090.2 | 1492 | 1456 | 1419 | 18.01 | 11.73 | 8.159
x2 = 0.7298 | 1015.5 | 1004.4 | 993.2 | 1382 | 1340 | 1300 | 7.296 | 5.125 | 3.774
x2 = 0.8046 | 970 | 958.6 | 947.2 | 1337 | 1294 | 1252 | 5.491 | 3.918 | 2.918
x2 = 0.8894 | 907.7 | 895.9 | 884 | 1284 | 1238 | 1193 | 3.577 | 2.58 | 1.923
x2 = 0.9401 | 862.5 | 850.6 | 838.5 | 1249 | 1201 | 1154 | 2.776 | 1.997 | 1.482
x2 = 0.9727 | 829.8 | 817.8 | 805.5 | 1227 | 1178 | 1130 | 2.419 | 1.729 | 1.272

CCOS(=O)(=O)[O-].CCn1cc[n+](C)c1 [1-ethyl-3-methylimidazolium ethyl sulfate] + CC(C)O
[1]
Settings | refractive index
x2 = 0 | 1.4794
x2 = 0.1228 | 1.47434
x2 = 0.2066 | 1.47057
x2 = 0.309 | 1.46502
x2 = 0.399 | 1.45926
x2 = 0.4977 | 1.45177
x2 = 0.6341 | 1.43881
x2 = 0.7223 | 1.42818
x2 = 0.8551 | 1.40784
x2 = 0.9706 | 1.38306

[2]
Settings | mass density, 298.15 K [kg/m3] | mass density, 313.15 K [kg/m3] | mass density, 328.15 K [kg/m3] | speed of sound, 298.15 K [m/s] | speed of sound, 313.15 K [m/s] | speed of sound, 328.15 K [m/s] | viscosity, 298.15 K [mPa·s] | viscosity, 313.15 K [mPa·s] | viscosity, 328.15 K [mPa·s]
x2 = 0 | 1237.6 | 1227.5 | 1217.5 | 1679 | 1643 | 1605 | 97.58 | 50.01 | 29.18
x2 = 0.1228 | 1214.3 | 1204.4 | 1194.5 | 1644 | 1608 | 1569 | 69.71 | 37.79 | 22.97
x2 = 0.2066 | 1196.4 | 1186.4 | 1176.3 | 1611 | 1576 | 1537 | 53.67 | 30.34 | 18.93
x2 = 0.309 | 1170.9 | 1160.9 | 1150.7 | 1570 | 1534 | 1494 | 40.1 | 23.56 | 15.2
x2 = 0.399 | 1144.9 | 1134.7 | 1124.3 | 1529 | 1491 | 1451 | 29.79 | 18.23 | 12.1
x2 = 0.4977 | 1111.8 | 1101.3 | 1090.7 | 1475 | 1439 | 1399 | 21.14 | 13.41 | 9.184
x2 = 0.6341 | 1054.2 | 1043.5 | 1032.6 | 1399 | 1360 | 1318 | 12.4 | 8.274 | 5.878
x2 = 0.7223 | 1008.5 | 997.4 | 986.2 | 1342 | 1302 | 1259 | 8.462 | 5.753 | 4.15
x2 = 0.8551 | 920.2 | 908.6 | 896.6 | 1251 | 1207 | 1161 | 4.475 | 3.081 | 2.225
x2 = 0.9706 | 814.1 | 801.7 | 788.5 | 1164 | 1113 | 1063 | 2.499 | 1.658 | 1.147

CCCO [propan-1-ol] + CCOS(=O)(=O)[O-].CCn1cc[n+](C)c1
Settings | refractive index
[1], x1 = 1 | 1.3831

[2], x1 = 1
Settings | mass density [kg/m3] | speed of sound [m/s] | viscosity [mPa·s]
298.15 K | 799.6 | 1207 | 2.017
313.15 K | 787.4 | 1155 | 1.43
328.15 K | 774.8 | 1105 | 1.041

CCOS(=O)(=O)[O-].CCn1cc[n+](C)c1 [1-ethyl-3-methylimidazolium ethyl sulfate] + CO
[1]
Settings | refractive index
x2 = 0 | 1.4794
x2 = 0.1346 | 1.47491
x2 = 0.2595 | 1.47006
x2 = 0.3267 | 1.46675
x2 = 0.4741 | 1.45742
x2 = 0.5701 | 1.44913
x2 = 0.6664 | 1.43808
x2 = 0.7757 | 1.42043
x2 = 0.8294 | 1.4078
x2 = 0.923 | 1.37377
x2 = 0.9626 | 1.35299
x2 = 0.9917 | 1.33319

[2]
Settings | mass density, 298.15 K [kg/m3] | mass density, 313.15 K [kg/m3] | mass density, 328.15 K [kg/m3] | speed of sound, 298.15 K [m/s] | speed of sound, 313.15 K [m/s] | speed of sound, 328.15 K [m/s] | viscosity, 298.15 K [mPa·s] | viscosity, 313.15 K [mPa·s] | viscosity, 328.15 K [mPa·s]
x2 = 0 | 1237.6 | 1227.5 | 1217.5 | 1679 | 1641 | 1605 | 97.58 | 50.01 | 29.18
x2 = 0.1346 | 1224.2 | 1214.1 | 1204 | 1663 | 1627 | 1588 | 60.93 | 33.83 | 20.92
x2 = 0.2595 | 1209.1 | 1199 | 1188.6 | 1640 | 1603 | 1564 | 39.32 | 23.4 | 15.25
x2 = 0.3267 | 1199.4 | 1189.1 | 1178.8 | 1624 | 1587 | 1549 | 30.59 | 18.94 | 12.65
x2 = 0.4741 | 1171.9 | 1161.3 | 1150.7 | 1583 | 1546 | 1506 | 16.38 | 11.02 | 7.887
x2 = 0.5701 | 1146.8 | 1135.9 | 1125.1 | 1547 | 1509 | 1469 | 10.12 | 7.173 | 5.387
x2 = 0.6664 | 1113.9 | 1102.9 | 1091.8 | 1500 | 1461 | 1420 | 6.45 | 4.776 | 3.661
x2 = 0.7757 | 1059 | 1047.5 | 1035.9 | 1423 | 1382 | 1340 | 3.232 | 2.508 | 2.02
x2 = 0.8294 | 1021.1 | 1009.2 | 997.3 | 1371 | 1330 | 1287 | 2.351 | 1.86 | 1.501
x2 = 0.923 | 924.9 | 912.2 | 899.3 | 1251 | 1207 | 1162 | 1.639 | 0.901 | 0.666
x2 = 0.9626 | 863.7 | 850.4 | 836.9 | 1187 | 1137 | 1090 | 1.263 | 0.66 | 0.551
x2 = 0.9917 | 806 | 792.2 | 777.7 | 1123 | 1076 | 1029 | 1.039 | 0.516 | 0.43
